Data: patent US5153227A, “Phenylsulfonyl nitromethanes as aldose reductase inhibitors” (Imperial Chemical Industries PLC, priority 1987, dated 1992)

Target: T1, aldose reductase (Bos taurus, UniProt P16116)
T1 construct: partially purified aldose reductase is isolated in known manner from bovine lenses; from tissue; host or cells: bovine lenses
Test: in vitro inhibition of partially purified aldose reductase isolated from bovine lenses (reduction of glucose to sorbitol, spectrophotometric)
Type: biochemical
Conditions: in vitro test, bovine lens aldose reductase
Method: Thus, partially purified aldose reductase is isolated in known manner from bovine lenses. The percentage inhibition of this enzyme's ability in vitro to catalyse the reduction of aldoses to polyhydric alcohols, and particularly to reduce glucose to sorbitol, caused by a test compound is then determined using standard spectrophotometric methods.

IC50: 320 nM
SMILES: O=[N+]([O-])CS(=O)(=O)c1cccc2ccccc12 [Example 1, (1-naphthylsulphonyl)nitromethane]
